Like-named read-outs stand apart in the source and are kept apart here.
How the values were obtained:
[1] = tested on: ethionine-induced non-alcoholic fatty liver; assay: Ethionine-induced mouse non-alcoholic fatty liver model; format: in vivo; details: for TC (mmol/gprot): mouse liver tissue cholesterol; for TC (mmol/gprot) / TG (mmol/gprot): 200 mg/kg intragastric once a day x3, 250 mg/kg ethionine; for TG (mmol/gprot): mouse liver tissue triglyceride; for Percent TG reduction (%) / TC reduction percent (%): mouse liver tissue, 200 mg/kg, versus model group
Method: 1. Method for Establishment of an Ethionine-Induced Mouse Non-Alcoholic Fatty Liver Model and Method of Administration SPF-grade male ICR mice (20-22 g), after acclimatization, were randomly divided into 5 groups: a blank control group, an ethionine-induced model group, a 200 mg/kg (+)IMM-H014 group, a 200 mg/kg (−)IMM-H014 group, and a 200 mg/kg (±)IMM-H014 group, 5 mice in each group. Three days before the establishment of the models, each administration group was intragastrically administrated once per day, and it was totally administrated three times. The animals in the blank control group and the model group were intragastrically administrated with the same dose of physiological saline. Each administration dose was 10 mL/kg. One hour after the last administration, the mice in each group were intragastrically administrated with 250 mg/kg ethionine once. The administration dose was 20 ml/kg. The mice were in fasting but not in water deprivation for 24 h and then the animals waited for further treatment. 2. Determinations of the Contents of Triglyceride and Cholesterol in Liver Tissues The mice were subjected to thoracotomy to take out the livers which were washed with physiological saline at 4° C. A part of the liver tissues were prepared into a 10% liver tissue homogenate with a lysate and an electric homogenizer, wherein one part was measured according to the measurement methods of a triglyceride kit and a cholesterol kit to determine the triglyceride and cholesterol therein, and the other part was measured with a BCA protein quantification kit to determine the content of proteins therein. The triglyceride and cholesterol in the liver tissues were subjected to protein corrections. By adopting SPSS software, the data each were presented as a number mean±standard deviation (x±SD).

[2] = Pharmacokinetics in male SD rats after intragastric administration; format: in vivo, rat; details: 50 mg/kg intragastric, plasma
Method: Male SD rats were intragastrically administrated with the single enantiomer and racemate of IMM-H014, to compare their pharmacokinetic characteristics in rat bodies.
36 male SD rats were randomly divided into 6 groups, 6 animals in each group, including: (+)IMM-H014 intragastric administration group, (−)IMM-H014 intragastric administration group, and (±)IMM-H014 intragastric administration group. The administration dosage was 50 mg/kg. The rats were in fasting for 12 hours before the administrations and they could freely drink water.
100 mg of the IMM-H014 raw material drug was weighed and dissolved in 20 ml of purified water to prepare a 5 mg/ml administration solution, which was administrated (1 ml/100 g) in a single dose according to body weights.
At 0 hour before administrations, and at 5 min, 10 min, 30 min, 1 h, 2 h, 3 h, 5 h, 8 h, 12 h and 24 h after administrations, 250 μL of blood was taken from fundus plexus venosus, placed in an EP tube containing 10 μL of heparin sodium, and centrifuged at 4000 rpm for 10 min, and then the blood plasma was taken and stored in a refrigerator at −80° C.
50 μL of a plasma sample was precisely pipetted, and after 10 μL of an internal standard working solution was added thereto, they were placed in a 1.5 ml EP. They were whirled for 30 s and added with 500 μl of ethyl acetate. Then, they were whirled and vibrated for 5 min, and after being kept still for 10 min at 4° C., they were centrifuged for 5 min at 13000 r. The supernatant was taken and dried by blowing N2 at 30° C. The residue was re-dissolved by adding 100 μL of the initial mobile phase and centrifuged for 5 min at 13000 r, and the supernatant was transferred into a sampling bottle for measurements.
• Chromatographic column: Agilent ZORBAX SB-C18 (2.1×100 mm, 3.5 μm) • Mobile phase A: water (0.1% formic acid, 1 mM ammonium acetate); mobile • phase B: acetonitrile (0.1% formic acid) • Column temperature: at 35° C.; sampling amount: 3 μL • Elution: 0-2 min: 40%-53% of the B; 2-3 min: 53%-40% of the B 4.4 Mass Spectrometry Conditions
Ion source: ESI; detection mode: positive ions; temperature of drying gases: 300° C.; flow rate of drying gases: nitrogen gas, 11 L/min; atomizing gas: nitrogen, […]; capillary voltage: 4000 V; scanning mode: Multiple Reaction Measurement (MRM); ion pairs and related voltage parameters were shown below:
The original data obtained after samples were collected was treated by adopting MassHunter QQQ data processing software, to obtain blood-drug concentration data; then, the pharmacokinetic parameters were calculated through DAS software; finally, the t-test was performed by adopting SPSS software, to compare if there were statistical differences in drugs having the same optical activity but in different batches and in drugs having different optical activities, wherein the P<0.05 was considered to have significant differences. In the study, by intragastrically administrating 3 groups of SD rats with the single enantiomer and racemate of the IMM-H014 respectively, their pharmacokinetic characteristics in the rat bodies were studied.

| Structure (SMILES) | TC (mmol/gprot) [1] [mmol/gprot] | TG (mmol/gprot) [1] [mmol/gprot] | Percent TG reduction (%) [1] [%] | TC reduction percent (%) [1] [%] | AUC (0-t) [2] [ng·h/mL] | AUC (0-∞) [2] [ng·h/mL] | CLz/F [2] [mL/min/kg] | Cmax [2] [ng/mL] | Tmax [2] [min] | t1/2z [2] [min] | Percent TG reduction (%) ([1]; listed as (−) IMM-H014, 200 mg/kg) | Cmax ([2]; male, SD, rat, po, 50 mg/kg, read-out: Cmax) [ng/mL] | Tmax ([2]; male, SD, rat, po, 50 mg/kg, read-out: Tmax) [min] |
| --- | --- | --- | --- | --- | --- | --- | --- | --- | --- | --- | --- | --- | --- |
| COC(=O)c1cc(OC)c2c(c1-c1c(CN3CCOCC3)cc(OC)c3c1OCO3)OCO2 (racemic) [(±)IMM-H014] | 0.063 ± 0.013 | 0.110 ± 0.005 | 56.6 | 30.0 | 5242 ± 3447 | 5268 ± 3432 | 233 ± 155 | 3324 ± 2307 | 12.5 ± 9 | 72.36 ± 16.2 | – | – | – |
| COC(=O)c1cc(OC)c2c(c1-c1c(CN3CCOCC3)cc(OC)c3c1OCO3)OCO2 [(−)IMM-H014] | 0.061 ± 0.013 | 0.154 ± 0.040 | 39.0 | 32.4 | 5866 ± 2979 | 5892 ± 3005 | 178 ± 103 | 3280 ± 1579 | 18 ± 10.8 | 74.88 ± 19.8 | 39.0 | – | – |
| COC(=O)c1cc(OC)c2c(c1-c1c(CN3CCOCC3)cc(OC)c3c1OCO3)OCO2 [(+)IMM-H014] | 0.065 ± 0.022 | 0.235 ± 0.070 | 7.1 | 27.2 | 2876 ± 1978 | 2877 ± 1977 | 417 ± 262 | – | – | 59 ± 15.6 | – | 2280 ± 2000 | 20 ± 11.4 |
